Values joined by “and” are separate entries in the source; they are usually repeats but may differ in a detail not shown here. Identical values can stand only once.

This assay relates to BDF1 mice, Adenocarcinoma 755 s.c., tumor weight T/C. Put plainly: NCI In Vivo Anticancer Drug Screen. Data for tumor model Adenocarcinoma 755 (subcutaneous) in B6D2F1 (BDF1) mice. Conditions: endpoint: mean tumor weight, higher = larger tumour. In outline:
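Tumor-bearing mice receive test compound while controls get vehicle alone. Antitumor effect is scored from survival or tumor dimensions as a T/C quotient.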

[1] abbreviates: dose: 25.0 mg/kg/injection, schedule: Q01DX011 (ip), vehicle: carboxymethylcellulose (CMC).

Consider `CCn1cnc2c(=S)nc[nH]c21`, for which the T/C is, setting by setting: (dose: 0.75 mg/kg/injection, schedule: Q01DX011 (ip), vehicle: carboxymethylcellulose (CMC)) 100 % of control; (dose: 0.75 mg/kg/injection, schedule: Q#A X022 (ip), vehicle: carboxymethylcellulose (CMC)) 18 % of control; (dose: 1.5 mg/kg/injection, schedule: Q01DX006 (iv), vehicle: carboxymethylcellulose (CMC)) 121 % of control; (dose: 1.5 mg/kg/injection, schedule: Q01DX011 (im), vehicle: carboxymethylcellulose (CMC)) 14 % of control; (dose: 1.5 mg/kg/injection, schedule: Q01DX011 (sc), vehicle: carboxymethylcellulose (CMC)) 39 % of control; (dose: 1.5 mg/kg/injection, schedule: Q#A X022 (ip), vehicle: carboxymethylcellulose (CMC)) 1 % of control. Besides, the T/C by setting is: (dose: 3.0 mg/kg/injection, schedule: Q01DX006 (iv), vehicle: carboxymethylcellulose (CMC)) 22 % of control; (dose: 3.0 mg/kg/injection, schedule: Q01DX011 (im), vehicle: carboxymethylcellulose (CMC)) 5 % of control; (dose: 3.0 mg/kg/injection, schedule: Q01DX011 (ip), vehicle: carboxymethylcellulose (CMC)) 6 % of control and 19 % of control; (dose: 3.0 mg/kg/injection, schedule: Q01DX011 (sc), vehicle: carboxymethylcellulose (CMC)) 17 % of control; (dose: 3.0 mg/kg/injection, schedule: Q#A X022 (ip), vehicle: carboxymethylcellulose (CMC)) 1 % of control; (dose: 4.5 mg/kg/injection, schedule: Q03DX004 (ip), vehicle: carboxymethylcellulose (CMC)) 24 % of control. Moreover, the T/C is, setting by setting: (dose: 4.6 mg/kg/injection, schedule: Q01DX011 (ip), vehicle: carboxymethylcellulose (CMC)) 58 % of control; (dose: 4.62 mg/kg/injection, schedule: Q01DX011 (ip), vehicle: carboxymethylcellulose (CMC)) 1 % of control; (dose: 6.0 mg/kg/injection, schedule: Q01DX006 (iv), vehicle: carboxymethylcellulose (CMC)) 15 % of control; (dose: 6.0 mg/kg/injection, schedule: Q01DX011 (im), vehicle: carboxymethylcellulose (CMC)) 1 % of control; (dose: 6.0 mg/kg/injection, schedule: Q01DX011 (ip), vehicle: carboxymethylcellulose (CMC)) 4 % of control and 13 % of control; (dose: 6.0 mg/kg/injection, schedule: Q01DX011 (sc), vehicle: carboxymethylcellulose (CMC)) 3 % of control. Besides, the T/C runs as follows: (dose: 6.0 mg/kg/injection, schedule: Q#A X022 (ip), vehicle: carboxymethylcellulose (CMC)) 1 % of control; (dose: 9.0 mg/kg/injection, schedule: Q03DX004 (ip), vehicle: carboxymethylcellulose (CMC)) 23 % of control; (dose: 9.2 mg/kg/injection, schedule: Q01DX011 (ip), vehicle: carboxymethylcellulose (CMC)) 20 % of control; (dose: 9.25 mg/kg/injection, schedule: Q01DX011 (ip), vehicle: carboxymethylcellulose (CMC)) 1 % of control; (dose: 9.25 mg/kg/injection, schedule: Q01DX011 (oral), vehicle: carboxymethylcellulose (CMC)) 1 % of control; (dose: 11.0 mg/kg/injection, schedule: Q07DX002 (ip), vehicle: carboxymethylcellulose (CMC)) 53 % of control. The T/C was 3 % of control (dose: 12.0 mg/kg/injection, schedule: Q01DX006 (iv), vehicle: carboxymethylcellulose (CMC)); 3 % of control (dose: 12.0 mg/kg/injection, schedule: Q01DX011 (ip), vehicle: carboxymethylcellulose (CMC)); 4 % of control (dose: 18.0 mg/kg/injection, schedule: Q03DX004 (ip), vehicle: carboxymethylcellulose (CMC)); 6 % of control (dose: 18.5 mg/kg/injection, schedule: Q01DX011 (ip), vehicle: carboxymethylcellulose (CMC)); 33 % of control (dose: 22.0 mg/kg/injection, schedule: Q07DX002 (ip), vehicle: carboxymethylcellulose (CMC)); 2 % of control (dose: 25.0 mg/kg/injection, schedule: Q01DX006 (iv), vehicle: carboxymethylcellulose (CMC)). In addition, the T/C is 1 % of control under setting [1]; 1 % of control (dose: 25.0 mg/kg/injection, schedule: Q01DX011 (sc), vehicle: carboxymethylcellulose (CMC)); 2 % of control (dose: 37.0 mg/kg/injection, schedule: Q01DX011 (ip), vehicle: carboxymethylcellulose (CMC)); 1 % of control (dose: 37.0 mg/kg/injection, schedule: Q03DX004 (ip), vehicle: carboxymethylcellulose (CMC)); 8 % of control (dose: 44.0 mg/kg/injection, schedule: Q07DX002 (ip), vehicle: carboxymethylcellulose (CMC)); 1 % of control (dose: 75.0 mg/kg/injection, schedule: Q03DX004 (ip), vehicle: carboxymethylcellulose (CMC)). The T/C is, setting by setting: (dose: 87.0 mg/kg/injection, schedule: Q07DX002 (ip), vehicle: carboxymethylcellulose (CMC)) 4 % of control and 8 % of control; (dose: 350.0 mg/kg/injection, schedule: Q07DX002 (ip), vehicle: carboxymethylcellulose (CMC)) 2 % of control.

Regarding `CN(CC(=O)O)C(=N)N`, the T/C by setting is: (dose: 1500.0 mg/kg/injection, schedule: Q#A X022 (ip), vehicle: water) 86 % of control; (dose: 2500.0 mg/kg/injection, schedule: Q#A X022 (ip), vehicle: water) 66 % of control.

For `C[C@@H]1CN(C(=O)CCBr)[C@@H](C)CN1C(=O)CCBr`, the T/C was 50 % of control (dose: 113.0 mg/kg/injection, schedule: Q01DX011 (ip), vehicle: carboxymethylcellulose (CMC)); 48 % of control (dose: 225.0 mg/kg/injection, schedule: Q01DX011 (ip), vehicle: carboxymethylcellulose (CMC)); 57 % of control (dose: 450.0 mg/kg/injection, schedule: Q01DX011 (ip), vehicle: carboxymethylcellulose (CMC)).

As for `CCC(=O)O[C@H]1CC[C@H]2[C@@H]3CC[C@H]4CC(=O)[C@H](C)C[C@]4(C)[C@H]3CC[C@]12C`, the T/C runs as follows: (dose: 44.13 mg/kg/injection, schedule: Q01DX011 (sc), vehicle: steriod suspending solution) 109 % of control and 115 % of control; (dose: 88.25 mg/kg/injection, schedule: Q01DX011 (sc), vehicle: steriod suspending solution) 156 % of control; (dose: 125.0 mg/kg/injection, schedule: Q01DX011 (sc), vehicle: steriod suspending solution) 101 % of control; (dose: 353.0 mg/kg/injection, schedule: Q01DX011 (sc), vehicle: steriod suspending solution) 154 % of control; (dose: 500.0 mg/kg/injection, schedule: Q01DX011 (sc), vehicle: steriod suspending solution) 176 % of control; (dose: 1000.0 mg/kg/injection, schedule: Q01DX011 (sc), vehicle: steriod suspending solution) 124 % of control.

Consider `CCCCCn1cnc2c(=S)nc(N)[nH]c21`, for which the T/C reads like this: (dose: 3.1 mg/kg/injection, schedule: Q01DX011 (ip), vehicle: carboxymethylcellulose (CMC)) 112 % of control; (dose: 6.2 mg/kg/injection, schedule: Q01DX011 (ip), vehicle: carboxymethylcellulose (CMC)) 76 % of control; (dose: 12.5 mg/kg/injection, schedule: Q01DX011 (ip), vehicle: carboxymethylcellulose (CMC)) 28 % of control; under setting [1], 10 % of control; (dose: 75.0 mg/kg/injection, schedule: Q01DX011 (ip), vehicle: carboxymethylcellulose (CMC)) 2 % of control.

Regarding `COC(C(O)C(O)C(O)C(O)CO)n1cnc2cncnc21` (stereo not given), the T/C reads like this: (dose: 19.0 mg/kg/injection, schedule: Q01DX011 (ip), vehicle: carboxymethylcellulose (CMC)) 115 % of control; (dose: 57.0 mg/kg/injection, schedule: Q01DX011 (ip), vehicle: carboxymethylcellulose (CMC)) 152 % of control.

With `OCCNc1ncnc2c1ncn2C1CCCO1` (stereo not given), the T/C (dose: 50.0 mg/kg/injection, schedule: Q01DX011 (ip), vehicle: saline) is 174 % of control; the T/C (dose: 100.0 mg/kg/injection, schedule: Q01DX011 (ip), vehicle: saline) is 96 % of control; the T/C (dose: 200.0 mg/kg/injection, schedule: Q01DX011 (ip), vehicle: saline) was 48 % of control.

As for `Clc1ccccc1CSc1ncnc2nc[nH]c12`, the T/C is, setting by setting: (dose: 5.0 mg/kg/injection, schedule: Q01DX011 (ip), vehicle: other) 11 % of control; (dose: 10.0 mg/kg/injection, schedule: Q01DX011 (ip), vehicle: other) 2 % of control; (dose: 31.0 mg/kg/injection, schedule: Q01DX011 (ip), vehicle: other) 12 % of control; (dose: 62.0 mg/kg/injection, schedule: Q01DX011 (ip), vehicle: other) 3 % of control; (dose: 125.0 mg/kg/injection, schedule: Q01DX011 (ip), vehicle: other) 3 % of control.

In the case of `Nc1nc(Cl)cc(Nc2ccccc2Cl)n1`, the T/C (dose: 15.0 mg/kg/injection, schedule: Q01DX011 (ip), vehicle: methylcellulose (MC)) was 110 % of control; the T/C (dose: 31.0 mg/kg/injection, schedule: Q01DX011 (ip), vehicle: methylcellulose (MC)) was 49 % of control; the T/C (dose: 62.0 mg/kg/injection, schedule: Q01DX011 (ip), vehicle: methylcellulose (MC)) is 89 % of control; the T/C (dose: 125.0 mg/kg/injection, schedule: Q01DX011 (ip), vehicle: methylcellulose (MC)) was 89 % of control; the T/C (dose: 250.0 mg/kg/injection, schedule: Q01DX011 (ip), vehicle: methylcellulose (MC)) is 75 % of control.

Regarding `Cn1cnc(=S)c2[nH]cnc21`, where the note is “dose: 300.0 mg/kg/injection, schedule: Q01DX011 (ip), vehicle: carboxymethylcellulose (CMC)”, the T/C is 61 % of control.

Broadly, the T/C is the ratio of treated to control.

Values taken from PubChem BioAssay AID180 (DTP/NCI, 2004).
